# Assay results reported in US9896418B2, “Aryl ethers and uses thereof” (Peloton Therapeutics, Inc., priority 2013, dated 2018).
# System: HIF-2α HIS TAG-PASB Domain
# Experiment: HIF-2α Scintillation Proximity Assay (SPA)
# Format: binding
# Protocol: The percent inhibition was determined and IC50 values were calculated using the Dotmatics system based on the following equation: % inhibition=[(high control−sample)/(high control−low control)]×100.
row,Structure (SMILES),IC50 [µM]
1,"N#Cc1cc(F)cc(Oc2ccc(S(=O)(=O)C(F)F)c(C#N)c2Br)c1 [Compound 77, 2-Bromo-3-(3-cyano-5-fluorophenoxy)-6-((difluoromethyl)sulfonyl)benzonitrile]",1.9
2,"CC(=O)c1c(S(=O)(=O)C(F)(F)F)ccc(Oc2cc(F)cc(C#N)c2)c1C#N [Compound 79, 2-Acetyl-6-(3-cyano-5-fluorophenoxy)-3-((trifluoromethyl)sulfonyl)benzonitrile]",1.3
3,"N#Cc1cc(F)cc(Oc2ccc(S(=O)(=O)C(F)F)c(CO)c2Br)c1 [Compound 80, 3-(2-Bromo-4-((difluoromethyl)sulfonyl)-3-(hydroxymethyl)phenoxy)-5-fluorobenzonitrile]",0.022
4,"N#Cc1cccc(Oc2ccc(S(=O)(=O)C(F)F)c(CO)c2Br)c1 [Compound 81, 3-(2-Bromo-4-((difluoromethyl)sulfonyl)-3-(hydroxymethyl)phenoxy)benzonitrile]",0.29
5,"COC(=O)c1c([S+]([O-])C(F)F)ccc(Oc2cc(F)cc(Cl)c2)c1Br (stereo not drawn) [Compound 82, Methyl 2-bromo-3-(3-chloro-5-fluorophenoxy)-6-((difluoromethyl)sulfinyl)benzoate]",15
6,"CC(C)(C)OC(=O)NCc1c(S(=O)(=O)C(F)F)ccc(Oc2cc(F)cc(Cl)c2)c1Br [Compound 83, tert-butyl (2-bromo-3-(3-chloro-5-fluorophenoxy)-6-((difluoromethyl)sulfonyl)benzyl)carbamate]",3.2
7,"NCc1c(S(=O)(=O)C(F)F)ccc(Oc2cc(F)cc(Cl)c2)c1Br [Compound 85, (2-Bromo-3-(3-chloro-5-fluorophenoxy)-6-((difluoromethyl)sulfonyl)phenyl)methanamine]",2.9
8,"CC(=O)NCc1c(S(=O)(=O)C(F)F)ccc(Oc2cc(F)cc(Cl)c2)c1Br [Compound 86, N-(2-Bromo-3-(3-chloro-5-fluorophenoxy)-6-((difluoromethyl)sulfonyl)benzyl)acetamide]",71
9,"O=S(=O)(c1ccc(Oc2cccc(C(F)(F)F)c2)c(Br)c1CO)C(F)F [Compound 89, (2-Bromo-6-((difluoromethyl)sulfonyl)-3-(3-(trifluoromethyl)phenoxy)phenyl)methanol]",1.4
10,"CS(=O)(=O)c1ccc(Oc2cc(F)cc(Cl)c2)c2c1C(O)CC2 (stereo not drawn) [Compound 90, 4-(3-Chloro-5-fluorophenoxy)-7-(methylsulfonyl)-2,3-dihydro-1H-inden-1-ol]",0.23
11,"CCS(=O)(=O)c1ccc(Oc2cc(F)cc(Cl)c2)c2c1C(O)CC2 (stereo not drawn) [Compound 91, 4-(3-Chloro-5-fluorophenoxy)-7-(ethylsulfonyl)-2,3-dihydro-1H-inden-1-ol]",0.28
12,"CS(=O)(=O)c1ccc(Oc2cc(F)cc(Cl)c2)c(C(F)F)c1C#N [Compound 92, 3-(3-Chloro-5-fluorophenoxy)-2-(difluoromethyl)-6-(methylsulfonyl)benzonitrile]",0.037
13,"CS(=O)(=O)c1ccc(Oc2cc(F)cc(F)c2)c(C(F)F)c1C#N [Compound 93, 2-(Difluoromethyl)-3-(3,5-difluorophenoxy)-6-(methylsulfonyl)benzonitrile]",0.17
14,"CS(=O)(=O)c1ccc(Oc2cc(F)cc(C#N)c2)c(C(F)F)c1C#N [Compound 94, 3-(3-Cyano-5-fluorophenoxy)-2-(difluoromethyl)-6-(methylsulfonyl)benzonitrile]",0.13
15,"CS(=O)(=O)c1ccc(Oc2cc(F)cc(C#N)c2)c2c1C(O)CCC2 (stereo not drawn) [Compound 95, 3-Fluoro-5-((5-hydroxy-4-(methylsulfonyl)-5,6,7,8-tetrahydronaphthalen-1-yl)oxy)benzonitrile]",3.6
16,"N#Cc1c(I)ccc(Oc2cc(F)cc(Cl)c2)c1Br [Compound 96, 2-Bromo-3-(3-chloro-5-fluorophenoxy)-6-iodobenzonitrile]",3.1
17,"Fc1cc(Cl)cc(Oc2ccc(C(F)(F)F)c(Cl)c2Br)c1 [Compound 97, 2-Bromo-3-chloro-1-(3-chloro-5-fluorophenoxy)-4-(trifluoromethyl)benzene]",2.2
18,"N#Cc1c(S(=O)(=O)C(F)(F)F)ccc(Oc2cc(F)cc(Cl)c2)c1Br [Compound 98, 2-Bromo-3-(3-chloro-5-fluorophenoxy)-6-((trifluoromethyl)sulfonyl)benzonitrile]",0.015
19,"N#Cc1cc(F)cc(Oc2ccc(S(=O)(=O)C(F)(F)F)c(C#N)c2Br)c1 [Compound 100, 2-Bromo-3-(3-cyano-5-fluorophenoxy)-6-((trifluoromethyl)sulfonyl)benzonitrile]",0.094
20,"O=Cc1c(S(=O)(=O)C(F)(F)F)ccc(Oc2cc(F)cc(Cl)c2)c1Br [Compound 101, 2-Bromo-3-(3-chloro-5-fluorophenoxy)-6-((trifluoromethyl)sulfonyl)benzaldehyde]",0.026
21,"O=S(=O)(c1ccc(Oc2cc(F)cc(Cl)c2)c(Br)c1CO)C(F)(F)F [Compound 102, (2-Bromo-3-(3-chloro-5-fluorophenoxy)-6-((trifluoromethyl)sulfonyl)phenyl)methanol]",0.12

row,Structure (SMILES),IC50 [µM]
1,"CC(O)c1c(S(=O)(=O)C(F)(F)F)ccc(Oc2cc(F)cc(Cl)c2)c1Br (stereo not drawn) [Compound 103, 1-(2-Bromo-3-(3-chloro-5-fluorophenoxy)-6-((trifluoromethyl)sulfonyl)phenyl)ethan-1-ol]",0.3
2,"CC(=O)c1c(S(=O)(=O)C(F)(F)F)ccc(Oc2cc(F)cc(Cl)c2)c1Br [Compound 104, 1-(2-Bromo-3-(3-chloro-5-fluorophenoxy)-6-((trifluoromethyl)sulfonyl)phenyl)ethan-1-one]",0.27
3,"N#Cc1c(Oc2cc(F)cc(Cl)c2)ccc(S(=O)(=O)C(F)(F)F)c1C(=O)O [Compound 105, 3-(3-Chloro-5-fluorophenoxy)-2-cyano-6-((trifluoromethyl)sulfonyl)benzoic acid]",12
4,"CC(=NO)c1c(S(=O)(=O)C(F)(F)F)ccc(Oc2cc(F)cc(Cl)c2)c1Br [Compound 106, 1-(2-Bromo-3-(3-chloro-5-fluorophenoxy)-6-((trifluoromethyl)sulfonyl)phenyl)ethan-1-one oxime]",1
5,"O=S(=O)(c1ccc(Oc2cc(F)cc(Cl)c2)c(Br)c1C=NO)C(F)(F)F [Compound 107, 2-Bromo-3-(3-chloro-5-fluorophenoxy)-6-((trifluoromethyl)sulfonyl)benzaldehyde oxime]",0.16
6,"O=S(=O)(c1ccc(Oc2cc(F)cc(Cl)c2)c(Br)c1CNCCO)C(F)(F)F [Compound 108, 2-((2-Bromo-3-(3-chloro-5-fluorophenoxy)-6-((trifluoromethyl)sulfonyl)benzyl)amino)ethan-1-ol]",5.8
7,"CNCc1c(S(=O)(=O)C(F)(F)F)ccc(Oc2cc(F)cc(Cl)c2)c1Br [Compound 109, 1-(2-Bromo-3-(3-chloro-5-fluorophenoxy)-6-((trifluoromethyl)sulfonyl)phenyl)-N-methylmethanamine]",2.1
8,"O=S(=O)(c1ccc(Oc2cc(F)cc(Cl)c2)c(Br)c1CNCc1ccccc1)C(F)(F)F [Compound 110, N-Benzyl-1-(2-bromo-3-(3-chloro-5-fluorophenoxy)-6-((trifluoromethyl)sulfonyl)phenyl)methanamine]",1.6
9,"N#Cc1c(S(=O)(=O)C(F)(F)F)ccc(Oc2cc(F)cc(Cl)c2)c1Cl [Compound 111, 2-Chloro-3-(3-chloro-5-fluorophenoxy)-6-((trifluoromethyl)sulfonyl)benzonitrile]",0.015
10,"O=Cc1c(S(=O)(=O)C(F)(F)F)ccc(Oc2cc(F)cc(Cl)c2)c1Cl [Compound 112, 2-Chloro-3-(3-chloro-5-fluorophenoxy)-6-((trifluoromethyl)sulfonyl)benzaldehyde]",0.04
11,"CNCc1c(S(=O)(=O)C(F)(F)F)ccc(Oc2cc(F)cc(Cl)c2)c1Cl [Compound 113, 1-(2-Chloro-3-(3-chloro-5-fluorophenoxy)-6-((trifluoromethyl)sulfonyl)phenyl)-N-methylmethanamine]",2.3
12,"O=S(=O)(c1ccc(Oc2cc(F)cc(Cl)c2)c(Cl)c1CNCCF)C(F)(F)F [Compound 114, N-(2-Chloro-3-(3-chloro-5-fluorophenoxy)-6-((trifluoromethyl)sulfonyl)benzyl)-2-fluoroethan-1-amine]",1.1
13,"N#Cc1cccc(Oc2ccc(S(=O)(=O)C(F)(F)F)cc2Br)c1 [Compound 117, 3-(2-Bromo-4-((trifluoromethyl)sulfonyl)phenoxy)benzonitrile]",0.21
14,"N#Cc1cc(F)cc(Oc2ccc(S(=O)(=O)C(F)(F)F)cc2Br)c1 [Compound 118, 3-(2-Bromo-4-((trifluoromethyl)sulfonyl)phenoxy)-5-fluorobenzonitrile]",0.16
15,"N#Cc1cc(F)cc(Oc2ccc(S(=O)(=O)C(F)(F)F)cc2C#N)c1 [Compound 120, 2-(3-Cyano-5-fluorophenoxy)-5-((trifluoromethyl)sulfonyl)benzonitrile]",0.34
16,"COC(=O)c1cc(S(=O)(=O)C(F)(F)F)ccc1Oc1cc(F)cc(Cl)c1 [Compound 121, Methyl 2-(3-chloro-5-fluorophenoxy)-5-((trifluoromethyl)sulfonyl)benzoate]",16
17,"O=S(=O)(c1ccc(Oc2cc(F)cc(Cl)c2)c(CO)c1)C(F)(F)F [Compound 122, (2-(3-Chloro-5-fluorophenoxy)-5-((trifluoromethyl)sulfonyl)phenyl)methanol]",1.7
18,"O=Cc1cc(S(=O)(=O)C(F)(F)F)ccc1Oc1cc(F)cc(Cl)c1 [Compound 123, 2-(3-Chloro-5-fluorophenoxy)-5-((trifluoromethyl)sulfonyl)benzaldehyde]",0.032
19,"NC(=O)c1cc(S(=O)(=O)C(F)(F)F)ccc1Oc1cc(F)cc(Cl)c1 [Compound 125, 2-(3-Chloro-5-fluorophenoxy)-5-((trifluoromethyl)sulfonyl)benzamide]",8
20,"O=S(=O)(c1ccc(Oc2cc(F)cc(Cl)c2)c(CCO)c1)C(F)(F)F [Compound 127, 2-[2-(3-Chloro-5-fluoro-phenoxy)-5-(trifluoromethylsulfonyl)phenyl]ethanol]",2.8
21,"O=S(=O)(c1cc(C(F)(F)F)ccc1Oc1cc(F)cc(Cl)c1)C(F)(F)F [Compound 129, 1-(3-Chloro-5-fluorophenoxy)-4-(trifluoromethyl)-2-((trifluoromethyl)sulfonyl)benzene]",2.2
